Reference: the Biogen ADME set (Fang et al. 2023)
Values after ≈ are worked out from the molar mass of the structure shown.

Details: for aqueous solubility: pH 6.8

Row | SMILES | intrinsic clearance, human liver microsomes | intrinsic clearance, rat liver microsomes | aqueous solubility | MDR1-MDCK efflux ratio | fraction unbound, human plasma | fraction unbound, rat plasma
1 | C[C@@H](CN1CCC2(CC1)C(=O)NCN2c1cccc(F)c1)NC(=O)c1ccc(Br)cc1 | 88.8 mL/min/kg | 312 mL/min/kg | 3.85 µg/mL (≈ 7.87 µM) |  |  | 
2 | O=c1cc(-c2cc(F)c(Cl)nc2Cl)[nH]c2c(-c3ccccc3)c(C(F)(F)F)nn12 | ≤ 4.74 mL/min/kg | 19.4 mL/min/kg |  | 1.91 |  | 
3 | CCOc1ccc(-c2ccccc2NC(=O)COC)cc1 | 398 mL/min/kg | 4200 mL/min/kg | 37.3 µg/mL (≈ 131 µM) | 0.401 |  | 
4 | CCc1ccc(S(=O)(=O)NCc2ccnc(N3CCCC3)n2)cc1 | 311 mL/min/kg | 2060 mL/min/kg | 67.7 µg/mL (≈ 195 µM) | 0.891 |  | 
5 | c1ccc(NCc2ccc3c(c2)OCCCO3)nc1 | 66.5 mL/min/kg | 7100 mL/min/kg |  | 0.701 |  | 
6 | CCCn1ncc(CN2CCC(c3ncc[nH]3)CC2)c1C | 7.33 mL/min/kg | 498 mL/min/kg |  |  |  | 
7 | Nc1ccc(N2C(=O)CCCC2=O)cc1 |  |  | 28 µg/mL (≈ 137 µM) |  |  | 
8 | c1ccc(CNc2nn3nnnc3c3ccccc23)cc1 |  |  | 0.1 µg/mL (≈ 0.362 µM) | 0.624 |  | 
9 | CCNC(=O)c1cc(N2CCC(N3CCCC3=O)CC2)ccn1 | ≤ 4.74 mL/min/kg | ≤ 10.7 mL/min/kg |  |  |  | 
10 | CC(=O)N1CCN(c2ncc(-c3cc(C)no3)c([C@H]3CCCO3)n2)CC1 | ≤ 4.74 mL/min/kg | 22.9 mL/min/kg | 68.6 µg/mL (≈ 192 µM) | 2.44 |  | 
11 | COc1cc(OC)cc(C(=O)Nc2nc3c(s2)COc2ccccc2-3)c1 |  |  | 0.39 µg/mL (≈ 1.06 µM) |  |  | 
12 | OC1CCN(c2ncc(-c3cnccn3)c(-c3cccs3)n2)CC1 | 7.01 mL/min/kg | ≤ 10.7 mL/min/kg | 47.9 µg/mL (≈ 141 µM) | 1.14 |  | 
13 | CN(C)c1ccc2c(c1)Sc1cc(N(C)C)ccc1N2 | 31.8 mL/min/kg | 153 mL/min/kg |  | 6.59 |  | 
14 | [2H]c1nc(C)nc([2H])c1-c1cc(NC[C@@H](C)c2cccc3c(C(=O)NC)ccnc23)ncn1 | 5.41 mL/min/kg | 88.5 mL/min/kg |  | 106 |  | 
15 | O=C(c1ccc(Cl)cc1)N1CCC[C@@H](C(=O)N2CCc3ccccc3C2)C1 | 360 mL/min/kg | 2530 mL/min/kg |  | 2.44 |  | 
16 | CCCN(CCc1cccs1)[C@H]1CCc2c(O)cccc2C1 | 98.1 mL/min/kg | 3810 mL/min/kg |  | 0.512 |  | 
17 | CC(C)(C)c1noc(COc2ccccc2C#N)n1 |  |  | 40.8 µg/mL (≈ 159 µM) |  |  | 
18 | O=C(Cc1cn2ccccc2n1)N1CCC(n2c(=O)[nH]c3ccccc32)CC1 | 33.8 mL/min/kg | 389 mL/min/kg |  | 24.3 |  | 
19 | Cc1cnc(NC(=O)c2cc(S(=O)(=O)N(C)C)ccc2N2CCCC2)s1 |  |  | 0.21 µg/mL (≈ 0.532 µM) | 19.9 |  | 
20 | COc1cc(CNc2nnn[nH]2)cc(Br)c1OCc1ccc(Cl)cc1 | 10.5 mL/min/kg | 74.5 mL/min/kg | 1.88 µg/mL (≈ 4.43 µM) | 4.03 |  | 

Row | SMILES | intrinsic clearance, human liver microsomes | intrinsic clearance, rat liver microsomes | aqueous solubility | MDR1-MDCK efflux ratio | fraction unbound, human plasma | fraction unbound, rat plasma
21 | O=C(NCCc1cn2c(n1)CCCC2)c1ccccn1 | ≤ 4.74 mL/min/kg | 26.7 mL/min/kg | 47.6 µg/mL (≈ 176 µM) | 12.2 |  | 
22 | Cc1cnc(NCc2ccccc2-n2ccnc2)nc1N(C)C | 33.7 mL/min/kg | 486 mL/min/kg | 52.2 µg/mL (≈ 169 µM) | 11.3 |  | 
23 | CN(C)c1cccc(Cn2ccnc2-c2ccc(O)cc2)c1 | 77.7 mL/min/kg | 1040 mL/min/kg | 27.1 µg/mL (≈ 92.5 µM) | 3.77 |  | 
24 | O=C(c1nccc2ccccc12)N1CCC(COc2ccccn2)CC1 | 42.1 mL/min/kg | 5410 mL/min/kg |  |  |  | 
25 | CCN1CCC(N(C)c2ncnc3c2cnn3C)CC1 | 152 mL/min/kg | 37 mL/min/kg | 41.2 µg/mL (≈ 150 µM) | 1.01 |  | 
26 | CN1CCN(c2ncncc2-c2nc(-c3ccccc3)no2)CC1 | 28.1 mL/min/kg | 484 mL/min/kg | 56.4 µg/mL (≈ 175 µM) | 0.527 |  | 
27 | C#CCNC(=O)c1ccc(OC)c(OC)c1 |  |  | 26.9 µg/mL (≈ 123 µM) |  |  | 
28 | CCCCN1CCc2nc3cc(C4CC4)nn3c(O)c2C1 | ≤ 4.74 mL/min/kg | ≤ 10.7 mL/min/kg |  | 26.5 |  | 
29 | O=C(NCc1cc(F)cc(F)c1)c1ccccn1 | ≤ 4.74 mL/min/kg | 51.6 mL/min/kg | 43.4 µg/mL (≈ 175 µM) | 0.719 |  | 
30 | O=C(Cn1ncc2ccccc21)Nc1ccc2c(c1)CCO2 | 13.7 mL/min/kg | 210 mL/min/kg |  |  |  | 
31 | CNC(=O)Cc1csc(-c2ccc(C)cc2)n1 | 108 mL/min/kg | 1010 mL/min/kg | 4.06 µg/mL (≈ 16.5 µM) | 0.708 |  | 
32 | COCC1(c2nc(-c3ccncc3)nn2Cc2cccc(Cl)c2)CC1 | 341 mL/min/kg | 1420 mL/min/kg | 28 µg/mL (≈ 79 µM) | 0.731 |  | 
33 | Cc1cc(C(=O)N(C)Cc2ccc(Br)cc2)no1 | 92.8 mL/min/kg | 941 mL/min/kg | 64 µg/mL (≈ 207 µM) | 0.69 |  | 
34 | CC(C)c1ccc(NC(=O)c2ccc3nccnc3c2)cc1 | 29.1 mL/min/kg | 608 mL/min/kg | 4.96 µg/mL (≈ 17 µM) |  |  | 
35 | COc1cc2c(cc1OC)[C@@H]1CC(=O)[C@@H](CC(C)C)CN1CC2 | 57.8 mL/min/kg | 330 mL/min/kg |  | 0.721 |  | 
36 | C[C@H](NC(=O)CCC(F)(F)F)C(=O)N[C@@H]1C(=O)N(CCO)c2ncccc2-c2ccccc21 | ≤ 4.74 mL/min/kg | 10.8 mL/min/kg |  | 24 |  | 
37 | COCCc1nc(CCCn2cccn2)n(C2Cc3ccccc3C2)n1 | 25.1 mL/min/kg | 550 mL/min/kg | 21.4 µg/mL (≈ 60.9 µM) | 9.86 |  | 
38 | Clc1ccc(CSc2nc(-c3ccccc3)c[nH]2)cn1 | 229 mL/min/kg | 2880 mL/min/kg |  | 0.621 |  | 
39 | Cc1sc2ncnc(OCC(=O)Nc3ccc4c(c3)OCO4)c2c1C |  |  | 0.26 µg/mL (≈ 0.727 µM) | 0.986 |  | 
40 | CC(C)(O)Cn1nc(-c2ccccc2)c2c(Cl)c(-c3ccccc3)nnc21 | ≤ 4.74 mL/min/kg | 85.5 mL/min/kg |  | 0.725 |  | 

Row | SMILES | intrinsic clearance, human liver microsomes | intrinsic clearance, rat liver microsomes | aqueous solubility | MDR1-MDCK efflux ratio | fraction unbound, human plasma | fraction unbound, rat plasma
41 | CCn1c(C(=O)N(C2CC2)C2CC2)cc2c3c(ncn3C)c(Nc3cc(C)n(C)n3)nc21 | 11.3 mL/min/kg | 20.1 mL/min/kg |  | 21 |  | 
42 | c1cc(CC2CCNCC2)c2cccnc2c1 | ≤ 4.74 mL/min/kg | 141 mL/min/kg | 52.2 µg/mL (≈ 231 µM) |  |  | 
43 | CC(C)(CO)NCCCCn1c2ccccc2c2ccccc21 | 54.2 mL/min/kg | 163 mL/min/kg | 31.8 µg/mL (≈ 102 µM) | 7.39 |  | 
44 | Nc1ncnc2c1c(-c1cnc3[nH]ccc3c1)nn2C1CCCC1 | 101 mL/min/kg | 1210 mL/min/kg |  | 6.9 | 0.0729 | 0.0603
45 | CC(C)N(C(=O)Cn1cccc2cc(C(F)F)nc1-2)C(C)C | 285 mL/min/kg | 436 mL/min/kg |  | 4.05 |  | 
46 | O=C([C@H]1CCCN(Cc2ccc(F)cc2)C1)N1CCc2ccccc2C1 | 336 mL/min/kg | 3660 mL/min/kg | 50 µg/mL (≈ 142 µM) | 0.792 |  | 
47 | Cc1cc(C)n2ncc(C(=O)Nc3cccc(C(=O)O)c3)c2n1 | ≤ 4.74 mL/min/kg | ≤ 10.7 mL/min/kg | 17.6 µg/mL (≈ 56.7 µM) | 0.709 |  | 
48 | COc1cc2c(cc1OC)-c1[nH]nc(NCc3c(Cl)cccc3Cl)c1C2=O |  |  | 0.29 µg/mL (≈ 0.717 µM) | 3.05 |  | 
49 | COc1ccccc1-n1ncc2c(=O)[nH]c(SC(C)c3ccccc3)nc21 (centres undefined) | 224 mL/min/kg | 1180 mL/min/kg |  |  |  | 
50 | CNCc1cc(N(C)C)nc(C2CCCN2C(=O)C2CCCC2)n1 (centres undefined) | ≤ 4.74 mL/min/kg | 249 mL/min/kg |  | 45.6 |  | 
51 | CN(CCC1CCCCC1)C(=O)c1ccon1 | 40.4 mL/min/kg | 972 mL/min/kg | 69.9 µg/mL (≈ 296 µM) | 0.597 |  | 
52 | O=C(NCc1cnn2cccnc12)c1ccccc1-n1cnnc1 | ≤ 4.74 mL/min/kg | ≤ 10.7 mL/min/kg |  | 4.87 |  | 
53 | O=C(NCc1cccnc1)c1cnn(-c2ccccc2)c1 | ≤ 4.74 mL/min/kg | 26.3 mL/min/kg | 38.3 µg/mL (≈ 138 µM) | 2.46 |  | 
54 | Cc1ccc(C#N)c(NCc2ccccc2-n2ccnc2)n1 | 45.7 mL/min/kg | 621 mL/min/kg |  | 1.76 |  | 
55 | NC1CCCC1C(=O)N1CCC(c2c[nH]c3ncccc23)CC1 (centres undefined) | ≤ 4.74 mL/min/kg |  |  | 6.76 | 0.521 | 
56 | Fc1ccc(-n2cc(/C=C/c3ccnnc3)nn2)cc1Cl |  |  | 0.27 µg/mL (≈ 0.895 µM) | 0.642 |  | 
57 | CC1(COc2ccc3c(c2)ncn3-c2ccc3cccc(N4CCC(N)CC4)c3n2)COC1 | 57.1 mL/min/kg | 196 mL/min/kg | 32.8 µg/mL (≈ 74 µM) |  |  | 
58 | CC#CC(=O)N[C@H]1CCCN(c2c(F)cc(C(N)=O)c3[nH]c(C)c(C)c23)C1 | 25 mL/min/kg | 238 mL/min/kg | 10.8 µg/mL (≈ 29.2 µM) | 7.25 | 0.0146 | 0.00229
59 | CCc1c(C)nn(CCNC(=O)CCc2cnccn2)c1C | 64.5 mL/min/kg | 647 mL/min/kg |  | 23.4 |  | 
